This note sets out measurements from publication PMC3997483, “Aminostyrylbenzofuran Directly Reduces Oligomeric Amyloid-β and Reverses Cognitive Deficits in Alzheimer Transgenic Mice” (PLoS ONE, 2014).

Each structure is given as a SMILES string.

In assay [1] the test system is APP/PS1 TG mice. The assay can be described thus: Y-maze, prophylactic trial. It is filed as in vivo, mouse. The note with it: 5 to 12 months of age.
For assay [2], the system named is APP/PS1 TG mice. As to the kind of experiment: Contextual fear conditioning, therapeutic trial. As to conditions: PO 30 mg/kg/day, 3 months, TG 20.0%. It is filed as in vivo, mouse. As to the method: Behavioral tests were performed in the following sequence: Y-maze (day 1), Morris water maze (day 4 to 12) and contextual fear conditioning (day 26 to 27). To reduce stress, contextual fear conditioning was carried out 2 weeks after the Morris water maze task. In the therapeutic trial, APP/PS1 TG mice were treated with KMS88009 (30 mg/kg/day) for 3 months from 9 to 12 months of age. Y-maze tests short-term spatial working memory. Y-maze is a 3-armed (40 L×10 W×12 H cm) horizontal maze in which the arms are symmetrically disposed at 120° angles from each other. Mice were placed at the end of one arm and allowed to move freely through the maze during a 5-min session. Arm entry was considered completed when the hind paws of the mouse were completely placed in the arm. Alternation was defined as successive entries into the 3 arms on overlapping triplet sets. The series of arm entries was recorded via video recorders. […] During each trial session, the time taken to find the hidden platform (latency) was recorded using a video camera-based Ethovision System (Nodulus, Nertherlands). […] Swimming time was recorded during mice were in the pool quadrant where the platform had been previously located. […] Fear conditioning task was measured to test the ability to learn and remember an association between an aversive experience and environmental cues. […] Freezing response was measured without CS or US. […]

Consider `COc1ccc2cc(C=Cc3ccc(N(C)C)cc3)oc2c1` [KMS88009, 6-methoxy-2-(4-dimethylaminostyryl) benzofuran], for which the “frequency of spontaneous alternation (Y-maze)” value with APP/PS1 TG mice [1] (PO 10 mg/kg/day) is on record as 69.3%; in the assay with APP/PS1 TG mice [1] (PO 30 mg/kg/day) it was 68.5%; in the assay with APP/PS1 TG mice [1] (PO 100 mg/kg/day), 70.2%. Also, the “freezing response (contextual fear conditioning)” value in the assay with APP/PS1 TG mice [2] is reported as 48.3%.
